The values that follow come from ChEMBL document CHEMBL5329212, “In situ click chemistry-based discovery of 1,2,3-triazole-derived diarylpyrimidines as novel HIV-1 NNRTIs by exploiting the tolerant region I in binding pocket” (Bioorg Med Chem, 2023).

Each structure is given as a SMILES string. In brackets after ≈: the same amount, converted by molar mass.

What is called EC50 is the concentration needed to bring the measured effect to its halfway point. For orientation: IC50 means the concentration at which inhibition is half-maximal. Usually inhibition stands for the change of the read-out against control, counted positive when it falls. Usually CC50 stands for the concentration at which the toxic effect on the cells reaches its halfway point. Usually solubility stands for the dissolved amount per volume that the medium holds. The term half-life denotes the time needed for the level to fall by half in the phase considered. A low value points to fast loss.

In data set [1] the test system is Human immunodeficiency virus 1. As to the kind of experiment: Antiviral activity against HIV-1 harboring RT L100I mutant infected in human MT4 cells assessed as protection against virus-induced cytopathic effect measured after 5 days by MTT assay. It counts as functional, organism-based. To be noted: Human immunodeficiency virus 1, MT4, 120 h.
The subject of data set [2] is Human immunodeficiency virus 1. As to the kind of experiment: Antiviral activity against HIV-1 harboring RT E138K mutant infected in human MT4 cells assessed as protection against virus-induced cytopathic effect measured after 5 days by MTT assay. Type of data set: functional, organism-based. To be noted: Human immunodeficiency virus 1, MT4, 120 h. For orientation: Protection from cytopathic effect is a common read-out in antiviral testing.

The target of data set [3] is Human immunodeficiency virus type 1 reverse transcriptase (Human immunodeficiency virus 1, UniProt Q72547). The data set is described as follows: Inhibition of HIV-1 reverse transcriptase incubated for 1 hrs in presence of biotin-labeled dNTPs by ELISA assay.
Data set [4] concerns the target Human immunodeficiency virus type 1 reverse transcriptase (Human immunodeficiency virus 1) (UniProt Q72547). As to the kind of experiment: Inhibition of HIV-1 reverse transcriptase at 0.267 uM incubated for 1 hrs in presence of biotin-labeled dNTPs by ELISA assay relative to control. In general terms: ELISA stands for enzyme-linked immunosorbent assay.
Data set [5] has as its system Human immunodeficiency virus 1. The data set is described as follows: Antiviral activity against HIV-1 harboring RT Y181C mutant infected in human MT4 cells assessed as protection against virus-induced cytopathic effect measured after 5 days by MTT assay. Type of data set: functional, organism-based. The conditions noted are these: Human immunodeficiency virus 1, MT4, 120 h.

For data set [6], the system named is Human immunodeficiency virus 1. The data set is described as follows: Antiviral activity against HIV-1 harboring RT F227L/V106A double mutant infected in human MT4 cells assessed as protection against virus-induced cytopathic effect measured after 5 days by MTT assay. Type of data set: functional, organism-based. The conditions noted are these: Human immunodeficiency virus 1, MT4, 120 h.

Data set [7] has as its system Human immunodeficiency virus 1. As to the kind of experiment: Antiviral activity against HIV-1 harboring RT Y188L mutant infected in human MT4 cells assessed as protection against virus-induced cytopathic effect measured after 5 days by MTT assay. It counts as functional, organism-based. The conditions noted are these: Human immunodeficiency virus 1, MT4, 120 h.
Data set [8] is described as follows: Cytotoxicity against human MT4 cells assessed as reduction in cell viability measured after 5 days by MTT assay. It counts as toxicity, cell-based. To be noted: time 5 day. Background: Formazan colour is commonly taken as a measure of viable cells.
Data set [9] in a line: Aqueous solubility of the compound at pH 7.0 at 0.1 to 10 mg. Type of data set: physicochemical. The conditions noted are these: aqueous medium, dose 0.1-10 mg.
Data set [10] deals with Human immunodeficiency virus 1. The data set is described as follows: Antiviral activity against wild type HIV-1 IIIB infected in human MT4 cells assessed as protection against virus-induced cytopathic effect measured after 5 days by MTT assay. It counts as functional, organism-based. The conditions noted are these: Human immunodeficiency virus 1, IIIB, MT4, 120 h.
Data set [11] can be described thus: Aqueous solubility of the compound at pH 2 at 0.1 to 10 mg. Type of data set: physicochemical. To be noted: aqueous medium, dose 0.1-10 mg.
Data set [12] can be described thus: Aqueous solubility of the compound at pH 7.4 at 0.1 to 10 mg. It counts as physicochemical. To be noted: aqueous medium, dose 0.1-10 mg.
The test system of data set [13] is Human immunodeficiency virus 1. As to the kind of experiment: Antiviral activity against HIV-1 harboring RT K103N mutant infected in human MT4 cells assessed as protection against virus-induced cytopathic effect measured after 5 days by MTT assay. Type of data set: functional, organism-based. To be noted: Human immunodeficiency virus 1, MT4, 120 h.
Data set [14] deals with Human immunodeficiency virus 1. As to the kind of experiment: Antiviral activity against HIV-1 harboring RT RES056 mutant infected in human MT4 cells assessed as protection against virus-induced cytopathic effect measured after 5 days by MTT assay. Type of data set: functional, organism-based. The conditions noted are these: Human immunodeficiency virus 1, MT4, 120 h.
The nature of data set [15]: Half life in Wistar rat at 2 mg/kg, iv measured upto 8 hrs by LC-MS/MS analysis. It counts as ADME, organism-based. To be noted: in vivo.

As to `Cc1cc(C#N)cc(C)c1Oc1nc(Nc2ccc(-c3cn(S(=O)(=O)n4ccnc4)nn3)cc2)nc2ccsc12`, the EC50 in data set [1] came to 80 nM; in [2], 30 nM; in [5] it was 160 nM; in data set [6], 260 nM; in data set [7], 250 nM; in data set [10] it was 10 nM. Besides, the EC50 in [13] is 10 nM; in [14], ≥ 5640 nM. In addition, the IC50 in [3] is 30 nM. Moreover, the inhibition in data set [4] is 66.5%. The half-maximal cytotoxic concentration (CC50) at 120 h in data set [8] was 140000 nM. Also, the results for the solubility in data set [9], in data set [11] and in data set [12] were 64.7 µg/mL (≈ 114 µM), 102 µg/mL (≈ 179 µM) and 44.2 µg/mL (≈ 77.6 µM), respectively.
For the molecule `Cc1cc(C#N)cc(C)c1Oc1nc(NC2CCN(Cc3ccc(S(N)(=O)=O)cc3)CC2)nc2ccsc12`, the inhibition in data set [4] stood at 39.1%. Moreover, the half-life in data set [15] is 1.6 h.
As for `Cc1cc(C#N)cc(C)c1Oc1nc(Nc2ccc(-c3cn(Cc4ccc(Cl)cc4)nn3)cc2)nc2ccsc12`, the EC50 was 73200 nM in data set [1]; 1080 nM in data set [2]; 202000 nM in data set [5]; 106000 nM in data set [6]; > 222000 nM in [7]; 550 nM in data set [10]. In addition, the EC50 in data set [13] was 1110 nM; in data set [14], > 222000 nM. The IC50 in [3] came to 320 nM. The inhibition in [4] came out at 44.7%. The 50% cytotoxic concentration (CC50) at 120 h in [8] is > 222000 nM.
With `Cc1cc(C#N)cc(C)c1Oc1nc(Nc2ccc(-c3cn(Cc4ccc(C(F)(F)F)cc4F)nn3)cc2)nc2ccsc12`, the EC50 in data set [1] came to 2360 nM; in [2], 2450 nM; in [5], 3690 nM; in [6], 21800 nM; in data set [7], 18600 nM; in data set [10] it was 810 nM. Besides, the 50% effective concentration (EC50) in [13] came out at 1310 nM; in data set [14], 34400 nM. In addition, the half-inhibitory concentration (IC50) in data set [3] was 1090 nM. Besides, the inhibition in data set [4] was 63.6%. Besides, in [8], the CC50 at 120 h came out at 129000 nM.
Regarding `Cc1cc(C#N)cc(C)c1Oc1nc(Nc2ccc(-c3cn(Cc4ccc(B(O)O)cc4)nn3)cc2)nc2ccsc12`, the half-maximal effective concentration (EC50) in data set [1] came to 2450 nM; in [2], 650 nM; in data set [5] it was 4870 nM; in [6] it was 4090 nM; in data set [7], 3170 nM; in data set [10], 160 nM. The half-maximal effective concentration (EC50) in data set [13] was 410 nM; in data set [14], ≥ 5550 nM. Further, the IC50 in data set [3] stood at 420 nM. Besides, in data set [4], the inhibition came to 50.8%. In addition, in data set [8], the CC50 at 120 h amounted to 13400 nM.
With `Cc1cc(C#N)cc(C)c1Oc1nc(Nc2ccc(-c3cn(Cc4ccc(C(N)=O)cc4)nn3)cc2)nc2ccsc12`, the half-maximal effective concentration (EC50) in data set [1] worked out at 1470 nM; in data set [2] it was 150 nM; in data set [5], 6960 nM; in data set [6], 7070 nM; in data set [7] it was 12000 nM; in data set [10], 30 nM. Besides, the EC50 is 80 nM in data set [13] and > 218000 nM in data set [14]. Besides, the IC50 in data set [3] turned out to be 250 nM. Also, the inhibition in data set [4] is 39.5%. Moreover, in data set [8], the CC50 at 120 h was > 218000 nM.
The molecule `Cc1cc(C#N)cc(C)c1Oc1nc(NC2CCN(Cc3ccc(S(N)(=O)=O)cc3)CC2)nc2scnc12` had a half-life in data set [15] of 0.9 h.
Consider `Cc1cc(C#N)cc(C)c1Oc1nc(Nc2ccc(-c3cn(CC(=O)Nc4ccc(C(F)(F)F)cc4)nn3)cc2)nc2ccsc12`, for which the 50% effective concentration (EC50) in [1] stood at 2500 nM; in data set [2], 6680 nM; in data set [5] it was 5500 nM; in data set [6] it was 18700 nM; in data set [7], 17500 nM; in [10] it was 2060 nM. For the same molecule, the figures for the EC50 in data set [13] and in data set [14] were 2830 nM and 23400 nM, respectively. For the same molecule, the IC50 in data set [3] is 2730 nM. In data set [4], the inhibition came out at 43.8%. In addition, the CC50 at 120 h in data set [8] was > 195000 nM.
The molecule `Cc1cc(C#N)cc(C)c1Oc1nc(NC2CCN(Cc3ccc(S(N)(=O)=O)cc3)CC2)nc2ncsc12` showed a half-life in [15] of 2 h.
Turning to `Cc1cc(C#N)cc(C)c1Oc1nc(Nc2ccc(-c3cn(-c4ccc(C(N)=O)cc4)nn3)cc2)nc2ccsc12`, the EC50 in data set [1] is > 164000 nM; in [2], 920 nM; in data set [5], > 164000 nM; in [6], > 164000 nM; in data set [7], > 164000 nM; in data set [10], 150 nM. In addition, the EC50 in data set [13] was 250 nM; in data set [14], > 164000 nM. In [3], the concentration for half-maximal inhibition (IC50) was found to be 800 nM. In addition, in data set [4], the inhibition is 66.9%. For the same molecule, the CC50 at 120 h in data set [8] was determined as 164000 nM.
With `COC(=O)c1cccc(-n2cc(-c3ccc(Nc4nc(Oc5c(C)cc(C#N)cc5C)c5sccc5n4)cc3)nn2)c1`, the concentration for a half-maximal effect (EC50) in data set [1] worked out at 7400 nM; in [2], 4980 nM; in data set [5], 24200 nM; in data set [6] it was 23300 nM; in data set [7] it was 58400 nM; in data set [10], 1260 nM. Besides, the EC50 in data set [13] is 1750 nM; in [14], ≥ 154000 nM. Further, in data set [3], the concentration for half-maximal inhibition (IC50) was determined as 650 nM. Moreover, the inhibition in [4] turned out to be 42.4%. The half-maximal cytotoxic concentration (CC50) at 120 h in data set [8] is > 218000 nM.
`Cc1cc(C#N)cc(C)c1Oc1nc(Nc2ccc(-c3cn(Cc4ccc(S(C)(=O)=O)cc4)nn3)cc2)nc2ccsc12`: the 50% effective concentration (EC50) in data set [1] was 2160 nM; in data set [2], 140 nM; in data set [5], 20000 nM; in [6], 110000 nM; in data set [7] it was 124000 nM; in data set [10] it was 40 nM. In addition, the results for the EC50 in data set [13] and in data set [14] were 60 nM and ≥ 104000 nM, respectively. Further, the IC50 in data set [3] is 410 nM. The inhibition in data set [4] was determined as 51.9%. Besides, in data set [8], the CC50 at 120 h is > 206000 nM.
Take `Cc1cc(C#N)cc(C)c1Oc1nc(Nc2ccc(-c3cn(Cc4ccc(C(F)(F)F)cc4)nn3)cc2)nc2ccsc12`: the EC50 in data set [1] turned out to be 840 nM; in data set [2] it was 690 nM; in data set [5], 2390 nM; in data set [6], 8880 nM; in [7], 3120 nM; in [10], 190 nM. In addition, the concentration giving a half-maximal response (EC50) in [13] was 330 nM; in data set [14], 25500 nM. Moreover, the IC50 in data set [3] was found to be 450 nM. The inhibition in [4] came out at 74.2%. Further, the CC50 at 120 h in data set [8] stood at 88200 nM.
